Measured values as given in patent US20060029548A1, “Methods of diagnosing, monitoring and treating pulmonary diseases” (priority 2004, published 2006).
“Also recorded” adds a separate entry of the source.

Experiments:
Assay type in all cases: in vivo
[1] = system: pulmonary RAR-containing afferent nerve fiber; experiment: Vagal activation experiments in dogs: action potentials in RAR-containing fibers; conditions: anesthetized dog
Protocol: (§1) The experiments described in Example 5 were performed essentially as described in Pelleg et al. [(1996) J. Physiol. 490(1):265-275] and U.S. Pat. No. 5,874,420, both of which are incorporated herein by reference in their entirety. In brief, they were performed on anesthetized (sodium pentobarbitone, 30 mg kg^−1 plus 3 mg kg^−1 h^−1, intravenous) dogs artificially ventilated with room air using a respirator. Arterial blood pH, PO2, PCO2, body temperature were maintained as described in U.S. Pat. No. 5,874,420. A peripheral vein was cannulated for the administration of physiological saline solution and maintenance doses of anesthetic. Catheters were introduced via the femoral vein and left atrial appendage and positioned in the right atrium and left atrium for the administration of test solutions. The chest was opened by a longitudinal sternotomy. The right cervical vagosympathetic trunk was exposed by a midcervical longitudinal section of the skin and careful dissection of neck muscles and connective tissues. The edges of the cut skin were elevated and secured to create a trough which was filled with warm (about 37° C.) mineral oil. A section of the vagosympathetic trunk was placed on a small plate of black Perspex™ and fine branches were separated from the main bundle by careful dissection using microsurgical tools and a dissecting microscope (Model F212, Jenopik Jena, GmbH, Germany).
Extracellular neural action potentials were recorded using a custom-made bipolar electrode that contained two platinum-iridium wires (1.25 cm×0.0125 cm) connected to a high-impedence first-stage differential amplifier (model AC8331, CW, Inc., Ardmore, Pa.) via a shielded cable. The output of the first-stage amplifier was fed into a second-stage differential amplifier (model BMA-831/C, CWE, Inc.). Isolated fibers were laid on the pair of platinum-iridium wires. Vagal C fibers with chemosensitive endings have a sparse irregular discharge which is not associated with cardiac or respiratory cycles. Confirmation of fiber type was obtained by: first monitoring the response to capsaicin (10 microg kg^−1, intra-right atrial bolus); second, monitoring the response to mechanical stimulation of the lungs using gentle probing with forceps as well as inflation of the lungs to 2-3 times the tidal volume; and third, determining the speed of conduction using a stimulating electrode positioned distal to the initial recording site. Nerve fibers with RAR on their pulmonary endings, spontaneously fire a brief (i.e., short lasting) volley of action potentials associated with peak tracheal pressure during each respiratory cycle.
[…] Volume controls consisted of either 5 ml+5 ml or 1 ml+3 ml physiological saline. All injections were performed in the same mode by the same person. To exclude involvement of baroreceptors in the recorded neural activity, the latter was monitored before and after a bolus of nitroglycerine (1 mg; intravenous).
The procedure described in Example 1 was used to measure action potentials in dog pulmonary fibers with RAR on their terminals following administration of various agents. RAR activation generated a brief volley of action potentials associated with each respiratory cycle that was seen before as well as after administration of ATP (FIG. 7). […] Thus ATP modified the activity of the RAR-containing fiber manifested in their transient loss of the rapid adaptability characteristic.

vagal C fiber = experiment: Vagal activation experiments in dogs: action potentials in vagal C fibers; conditions: anesthetized dog, rapid bolus; simultaneous recording with RAR-containing fiber
Protocol: as §1
Extracellular neural action potentials were recorded using a custom-made bipolar electrode that contained two platinum-iridium wires (1.25 cm×0.0125 cm) connected to a high-impedence first-stage differential amplifier (model AC8331, CW, Inc., Ardmore, Pa.) via a shielded cable. The output of the first-stage amplifier was fed into a second-stage differential amplifier (model BMA-831/C, CWE, Inc.). Isolated fibers were laid on the pair of platinum-iridium wires. Vagal C fibers with chemosensitive endings have a sparse irregular discharge which is not associated with cardiac or respiratory cycles. […]
ATP (3 umole kg^−1) and capsaicin (10 ug kg^−1) were administered as a rapid bolus into the right atrium (5 ml test solution+5 ml physiological saline flush). α,βmATP and β,γmATP were given as one low dose only (0.75 umol kg^−1) to avoid systemic side effects. […] To exclude involvement of baroreceptors in the recorded neural activity, the latter was monitored before and after a bolus of nitroglycerine (1 mg; intravenous). […]

[2] = system: human subjects (cough, throat irritation, sputum); experiment: Symptoms other than dyspnoea recorded after inhalation challenge; conditions: all subjects
Excerpt: The clinical study described in Examples 2-4 was randomized, double blind, crossover, and controlled. Each subject attended the laboratory on three occasions. Procedures on the initial screening visit included obtaining information about the study and a number of investigations in the following order: medical history, lung function, reversibility and skin prick testing. At visit 2 and 3, separated by 2-7 days, the subjects were subjected to either an ATP or AMP challenge in a randomized fashion such that, by the end of the study, each patient had been tested with both compounds. Before, immediately after, and 30 minutes after the challenge, lung function and Borg score for dyspnoea were determined, and symptoms other than dyspnoea were recorded.
For the tests described in Examples 2-4, ATP and AMP (Sigma, Gillingham, Dorset, England) were dissolved freshly in normal saline solution to produce a range of doubling concentrations from 0.227-929 umol/ml for ATP and from 0.138-1152 umol/ml for AMP and immediately used for bronchial challenge. The solutions were administered using a breath-activated dosimeter (Mefar, Bovezzo, Italy) with an output of 10 ul per inhalation [Prieto et al. (2003) Chest 123:993-997]. The subjects, while wearing a nose clip, inhaled (via a mouthpiece) five breaths of normal saline, followed by sequential doubling concentrations of either ATP or AMP from functional residual capacity to total lung capacity. FEV1 was measured from two minutes after the fifth inhalation of normal saline until there was a fall in FEV1 of ≧20% of its value recorded after saline inhalation or until maximal concentration of either ATP or AMP was inhaled. The provocative dose causing a 20% decrease in FEV1 (PD20) was calculated by interpolation of the logarithmic dose response curve.

In the case of Nc1ncnc2c1ncn2[C@@H]1O[C@H](COP(=O)(O)OP(=O)(O)OP(=O)(O)O)[C@@H](O)[C@H]1O [ATP, adenosine 5′-triphosphate], the “desensitization on repeated administrations” value ([1]; RAR-containing fibers) is reported as “not associated with desensitization”, the “effect on action potentials of RAR-containing fibers” value ([1]; rapid bolus, ATP 6 μmol/kg, capsaicin 10 ug kg−1, analogs 0.75 umol kg−1) is reported as “activity of RAR-containing fibers was prolonged; also recorded: stimulated both the C fibers and RAR-containing fibers” and the “effect on action potentials of C fibers” value (vagal C fiber) is reported as “stimulated both the C fibers and RAR-containing fibers”. For the same compound, the “subjects who coughed after challenge” value [2] was 90%, the “subjects who had sputum after challenge” value [2] was 28% and the “subjects who had throat irritation after challenge” value [2] was 75%.
